The subject of assay [1] is Staphylococcus aureus. Briefly: Antibacterial activity against antisense fabH/fabF sensitized Staphylococcus aureus assessed as minimum concentration required to show differential zone of fabF antisense strain clearance by two plate differential sensitivity assay. The assay is classed as functional.
The target in assay [2] is T1, 3-oxoacyl-[acyl-carrier-protein] synthase 2 (Staphylococcus aureus, UniProt Q5TKS0).
T1 sequence (Q5TKS0 whole entry): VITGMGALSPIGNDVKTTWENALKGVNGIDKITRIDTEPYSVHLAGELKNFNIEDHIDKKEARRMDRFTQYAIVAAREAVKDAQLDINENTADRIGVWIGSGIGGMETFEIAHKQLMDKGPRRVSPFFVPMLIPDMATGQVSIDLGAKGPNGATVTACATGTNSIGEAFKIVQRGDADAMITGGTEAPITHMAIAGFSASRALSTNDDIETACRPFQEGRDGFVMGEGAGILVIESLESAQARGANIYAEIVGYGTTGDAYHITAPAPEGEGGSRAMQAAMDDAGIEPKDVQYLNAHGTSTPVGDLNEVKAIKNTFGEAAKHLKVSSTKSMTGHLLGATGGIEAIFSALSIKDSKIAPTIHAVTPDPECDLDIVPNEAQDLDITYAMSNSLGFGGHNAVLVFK
Briefly: Inhibition of FabF-mediated type 2 fatty acid synthesis in Staphylococcus aureus by cell free assay.

The subject of assay [3] is Staphylococcus aureus. The assay can be described thus: Antimicrobial activity against wild type Staphylococcus aureus. The assay is classed as functional.

Values after ≈ are worked out from the molar mass of the structure shown. A value given as a limit tells only on which side of the number the result lay.

On to `CC12CC34Cc5cnoc5[C@@](C)(CCC(=O)Nc5c(O)ccc(C(=O)O)c5O)C3C(CC1C4)O2` (stereo not given in full), for which the Activity in the assay on Staphylococcus aureus [1] was 0.3 µg/mL. In assay [2], this molecule showed an IC50 of 22.4 µM. This molecule came in with an MIC in the assay with Staphylococcus aureus [3] of 16 µg/mL (≈ 34.2 µM).

Turning to `CC1=CC(=O)[C@@](C)(CCC(=O)Nc2c(O)ccc(C(=O)O)c2O)C2C3CC4CC12CC4(C)O3` (stereo not given in full), the Activity with Staphylococcus aureus [1] was determined as 0.03 µg/mL. The molecule also showed an IC50 in assay [2] of 5.27 µM. Inhibition of growth with Staphylococcus aureus [3] (MIC) required 4 µg/mL (≈ 8.78 µM).

Consider `CC12CC34CC1CC(O2)C3[C@](C)(CCC(=O)Nc1c(O)ccc(C(=O)O)c1O)C(=O)[C@@H]1C[C@@H]14` (stereo not given in full), for which the Activity in the assay with Staphylococcus aureus [1] was found to be 0.1 µg/mL. The IC50 in assay [2] was 20.9 µM. Moreover, the MIC against Staphylococcus aureus [3] stood at 1 µg/mL (≈ 2.2 µM).

Turning to `CC12CC34CCC(=O)[C@@](C)(CCC(=O)Nc5c(O)ccc(C(=O)O)c5O)C3C(CC1C4)O2` (stereo not given in full) [DIHYDROPLATENSIMYCIN], the Activity in the assay with Staphylococcus aureus [1] is 0.4 µg/mL. This molecule also gave an IC50 in assay [2] of 4.51 µM. In addition, the MIC in the assay on Staphylococcus aureus [3] worked out at 2 µg/mL (≈ 4.51 µM).

For the molecule `CC12CC34COC(=O)[C@@](C)(CCC(=O)Nc5c(O)ccc(C(=O)O)c5O)C3C(CC1C4)O2` (stereo not given in full), the Activity in the assay on Staphylococcus aureus [1] was above 2.7 µg/mL. The molecule further showed an IC50 in assay [2] of 165 µM. Besides, in the assay with Staphylococcus aureus [3], the MIC is above 64 µg/mL.

For `CN1CC23CC4CC(OC4(C)C2)C3[C@](C)(CCC(=O)Nc2c(O)ccc(C(=O)O)c2O)C1=O` (stereo not given in full), in the assay on Staphylococcus aureus [1], the Activity was above 2.7 µg/mL. In addition, the IC50 in assay [2] is above 436 µM. In addition, the MIC with Staphylococcus aureus [3] is above 64 µg/mL.

Regarding `CC1CC(=O)[C@@](C)(CCC(=O)Nc2c(O)ccc(C(=O)O)c2O)C2C3CC4CC12CC4(C)O3` (stereo not given in full), in the assay on Staphylococcus aureus [1], the Activity is below 20 µg/mL. Also, the IC50 in assay [2] was 28.4 µM. For the same molecule, the MIC against Staphylococcus aureus [3] was determined as 4 µg/mL (≈ 8.74 µM).

For `CC12CC34CC1CC(O2)C3[C@](C)(CCC(=O)Nc1c(O)ccc(C(=O)O)c1O)C(=O)CC4c1ccccc1` (stereo not given in full) [PHENYL DIHYDROPLATENSIMYCIN], the Activity in the assay with Staphylococcus aureus [1] was below 20 µg/mL. For the same molecule, in assay [2], the half-inhibitory concentration (IC50) was 7.7 µM. The MIC in the assay on Staphylococcus aureus [3] was found to be 4 µg/mL (≈ 7.7 µM).

Turning to `CC12C[C@@]34C=CC(=O)[C@@](C)(CCC(=O)Nc5c(O)ccc(C(=O)O)c5O)C3[C@H](CC1C4)O2` (stereo not given in full) [PLATENSIMYCIN], the Activity in the assay with Staphylococcus aureus [1] was found to be 0.01 µg/mL. This molecule also showed an IC50 in assay [2] of 1.13 µM. Besides, the MIC against Staphylococcus aureus [3] came to 0.5 µg/mL (≈ 1.13 µM).

Take `Cn1ncc2c1[C@@](C)(CCC(=O)Nc1c(O)ccc(C(=O)O)c1O)C1C3CC4CC1(C2)CC4(C)O3` (stereo not given in full): the Activity in the assay on Staphylococcus aureus [1] is above 2.7 µg/mL. This molecule showed an IC50 in assay [2] of 156 µM. In the assay with Staphylococcus aureus [3], this molecule displayed an MIC above 64 µg/mL.

(Values after ChEMBL document CHEMBL1153309, “Synthesis and biological evaluation of platensimycin analogs” (Bioorg Med Chem Lett, 2009).)
